Read-outs that look alike come from different tables or passages of the source.
Columns and labels:
Type in all cases: cell-based, human
[1] = tested on: HMGN1; test: HMGN1 ELISA in culture medium of A549 cancer cells (Example 12, Table 66); conditions: Homo sapiens; for activity at 30 µM: test compound 30 μM
[2] = tested on: HMGN1; test: HMGN1 ELISA in culture medium of foreskin cells (Examples 10, 11; Tables 62, 63, 64); conditions: Homo sapiens, read-out: HMGN1
[3] = tested on: A549; test: CellTiter-Glo cell viability of senescent A549 cancer cells (Example 12, Table 67); conditions: for viability at 1.1 µM / viability at 10 µM / viability at 30 µM / viability at 90 µM: Homo sapiens; for Survival (%): doxorubicin-induced senescent A549 cancer cells
[4] = tested on: foreskin cells in which senescence was induced by doxorubicin; test: CellTiter-Glo cell viability of doxorubicin-induced senescent foreskin cells (Examples 1-2, 10, 11, 13; Tables 4, 63, 65); conditions: for viability at 1.1 µM / viability at 10 µM / viability at 30 µM / viability at […]: Homo sapiens, 72 h, read-out: Survival (%); for removal of senescent cells: excessive concentrations (1 or 20 mM)
Procedure: After 3 days, cell viability was measured using CellTiter-Glo Luminescent Cell Viability Assay (Promega) or light microscopy.

[5] = A549, doxorubicin-induced senescent A549 cells, ELISA, DMSO = 100, read-out: HMGN1 (amount of HMGN1 secreted in the cell culture)
[6] = 30 μM test compound, doxorubicin-treated foreskin cells, DMSO = 100
[7] = A549, doxorubicin-induced senescent A549 cancer cells, 1.1 μM test compound, CellTiter-Glo, read-out: Survival (%)
[8] = 1.1 μM test compound, doxorubicin-induced senescent foreskin cells, CellTiter-Glo, 0 μM = 100
[9] = A549, doxorubicin-induced senescent A549 cells, test compound 90 μM, ELISA, DMSO = 100, read-out: HMGN1 (amount of HMGN1 secreted in the cell culture)
[10] = A549, doxorubicin-induced senescent A549 cancer cells, 10 μM test compound, CellTiter-Glo, read-out: Survival (%)
[11] = A549, doxorubicin-induced senescent A549 cancer cells, 30 μM test compound, CellTiter-Glo, read-out: Survival (%)
[12] = A549, doxorubicin-induced senescent A549 cancer cells, 90 μM test compound, CellTiter-Glo, read-out: Survival (%)
[13] = 10 μM test compound, doxorubicin-induced senescent foreskin cells, CellTiter-Glo, 0 μM = 100
[14] = 30 μM test compound, doxorubicin-induced senescent foreskin cells, CellTiter-Glo, 0 μM = 100
[15] = […] test compound, doxorubicin-induced senescent foreskin cells, CellTiter-Glo, 0 μM = 100

| SMILES | activity at 30 µM [1, 5] [%] | activity at 30 µM [2, 6] [%] | viability at 1.1 µM [3, 7] [%] | viability at 1.1 µM [4, 8] [%] | viability at 10 µM [3, 10] [%] | viability at 10 µM [4, 13] [%] | viability at 30 µM [4, 14] [%] | viability at […] [4, 15] [%] | also measured |
| --- | --- | --- | --- | --- | --- | --- | --- | --- | --- |
| COCC1Cc2c([nH]c3ccccc23)[C@H](c2ccc(C(=O)NC3CC3)cc2F)N1C(=O)CCl (stereo partly shown) [LX-413] | 322 | 287 | 10.1 | 0.5 |  |  |  |  |  |
| CCN(CC)c1nc2c(C(=O)O)c(O)c(I)c(-n3cccc3)c2s1 [LX-911] |  | 294 | 98.4 | 94.3 | 82.9 | 43.5 | 7.5 | 91.6 | activity at 90 µM [1, 9]: 206%; viability at 30 µM [3, 11]: 78.6%; viability at 90 µM [3, 12]: 27.4% |
| CCNC(=O)c1c(O)c(I)c(-n2cccc2)c2sc(N(CC)CC)nc12 [LX-912] |  | 317 | 92.4 | 104 | 83.9 | 32.7 | 3.1 | 85.2 | activity at 90 µM [1, 9]: 244%; viability at 30 µM [3, 11]: 32.4%; viability at 90 µM [3, 12]: 6.7% |
| COC(=O)/C=C\C(C#N)(C#N)/N=C/c1ccc(C)cc1 [LX-920] |  | 278 | 98.4 | 100 | 95.3 | 86.2 | 23.8 | 95.4 | activity at 90 µM [1, 9]: 197%; viability at 30 µM [3, 11]: 93.9%; viability at 90 µM [3, 12]: 25.1% |
| C[C@]12C=C(C#N)C(=O)C3(CC=CC3)C1=CC[C@@H]1[C@@H]2CC[C@]2(C)C(=O)CC[C@@H]12 [LX-2308] | 287 | 329 | 96.6 | 49.6 | 23.5 |  |  | 5.9 |  |
| CCC[C@H]1C(=O)C(C#N)=C[C@@]2(C)c3nc(-c4ccnc5ccccc45)nc(-c4ccccc4F)c3CC[C@H]12 [LX-2502] | 297 | 258 | 97.2 | 49.6 | 5.9 |  |  | 13.4 |  |
| CN(C)C(=S)N/N=C1\CCCc2cccnc21 [LX-802, 2-(6,7-Dihydroquinolin-8(5H)-ylidene)-N^4,N^4-dimethylhydrazine-1-carbothioamide] | 329 | 301 | 62.7 | 42.7 |  |  |  | 5.7 |  |
| C[C@@H]1[C@H]2[C@H]3C(=O)C=C4[C@@]5(C)C=C(C#N)C(=O)C(C)(C)[C@@H]5CC[C@@]4(C)[C@]3(C)CC[C@@]2(c2nc(CCO)no2)CC[C@H]1C [LX-2511] | 296 | 306 | 97.2 | 43.5 | 2.1 |  |  | 8.4 |  |
| CCNC(=O)CC[C@]12CCC(C)(C)C[C@H]1[C@H]1C(=O)C=C3[C@@]4(C)C=C(C#N)C(=O)C(C)(C)[C@@H]4CC[C@@]3(C)[C@]1(C)CC2 [LX-2402] | 286 | 287 | 99.5 | 45.2 | 5.4 |  |  | 5.1 |  |
| C[C@@H]1C(=O)C(C#N)=C[C@]2(C)C3=CC(=O)[C@@H]4[C@@H]5CC(C)(C)CC[C@]5(NC(=O)C(C)(F)F)CC[C@@]4(C)[C@]3(C)CC[C@@H]12 [LX-2201] | 326 | 318 | 28.4 | 9.8 |  |  |  |  |  |
| CCCC[C@H]1Cc2c([nH]c3ccccc23)[C@H](c2ccc(C(=O)NC34CC5CC(CC(C5)C3)C4)cc2)N1C(=O)CCl [LX-420] | 307 | 286 | 10 | 0 |  |  |  |  |  |
| CCn1c2ccccc2c2cc(CNC)ccc21 [LX-901] |  | 257 | 97.8 | 99.5 | 82.7 | 67.5 | 15.8 | 98.4 | activity at 90 µM [1, 9]: 255%; viability at 30 µM [3, 11]: 34.8%; viability at 90 µM [3, 12]: 11.7% |
| CC(C)Oc1ccc(-c2ccccc2)cc1-n1c(CN2CCN(C(=O)COc3ccc(Cl)cc3)CC2)nc2ccccc2c1=O [LX-1001] |  | 231 | 95.5 | 89.9 | 92.2 | 57.7 | 34.5 | 81.8 | activity at 90 µM [1, 9]: 183%; viability at 30 µM [3, 11]: 71.8%; viability at 90 µM [3, 12]: 25.3% |
| CCCC\C=C/C=C/C=C\CCCCCCCC(=O)O [LX-2707, Punicic acid] |  |  |  |  |  |  |  |  | viability at 1.1 µM ([3]; A549, read-out: Survival (%)): 95.1%; viability at 10 µM ([3]; A549, read-out: Survival (%)): 64.8%; viability at 30 µM ([3]; A549, read-out: Survival (%)): 29%; viability at 1.1 µM [4]: 95.1%; viability at 10 µM [4]: 64.8%; viability at 30 µM [4]: 29% |
| COc1cc(OC)cc(N(CCNC(C)C)c2ccc3ncc(-c4cnn(C)c4)nc3c2)c1 [LX-1903, Erdafitinib, reference compound] |  |  | 93.1 | 73.4 | 12.3 | 22.4 | 11.8 | 50.3 |  |
| C=C(CN(C)C)C(=O)c1ccc2c(c1)OCO2 [LX-919] |  |  |  |  |  |  |  |  | activity at 90 µM ([1]; A549, read-out: HMGN1 (amount of HMGN1 secreted in the cell culture)): 215%; activity at 30 µM [2]: 321% |
| CC(=O)N[C@@H](CS)C(=O)O [NAC, N-acetyl cysteine, reference compound] |  |  |  |  |  |  |  |  | removal of senescent cells [4]: hardly removed |
| CN(C)CCn1cc(-c2ccc(F)cc2)c(-n2cccc2)n1 [LX-913] |  |  | 95.1 | 97.7 | 82.6 | 65 |  | 84.4 | Survival (%) ([3]; 30 μM test compound, CellTiter-Glo): 45.7%; Survival (%) ([3]; 90 μM test compound, CellTiter-Glo): 1.9%; Survival (%) [4, 14]: 14.5% |
| OO [H2O2, reference compound] |  |  |  |  |  |  |  |  | removal of senescent cells [4]: hardly removed |
| Cc1onc(C(=O)N2CCN(C(c3ccc(Cl)cc3)c3ccc(OCc4cn(CCOCCOCCNc5cccc6c5C(=O)N(C5CCC(=O)NC5=O)C6=O)nn4)cc3)CC2)c1[N+](=O)[O-] (stereo not shown) [LX-435, 4-((2-(2-(2-(4-((4-((4-chlorophenyl)(4-(5-methyl-4-nitroisooxazol-3-carbonyl)piperazin-1-yl)methyl)phenoxy)methyl)-1H-1,2,3-triazol-1-yl)ethoxy)ethoxy)ethyl)amino)-2-(2,6-dioxopiperidin-3-yl)isoindolin-1,3-dione] |  |  |  |  |  |  |  |  | Survival (%) ([3]; 1.1 μM test compound, CellTiter-Glo): 92.1%; Survival (%) [4, 8]: 89.1%; Survival (%) [4, 15]: 5.9% |
